In ChEMBL document CHEMBL1909046, “DrugMatrix in vitro pharmacology data”:

Target: T1, Alpha-1D adrenergic receptor (Homo sapiens, UniProt P25100); note: in other assays of this panel Not Active means under 50% inhibition at 10 µM
T1 sequence (P25100 whole entry): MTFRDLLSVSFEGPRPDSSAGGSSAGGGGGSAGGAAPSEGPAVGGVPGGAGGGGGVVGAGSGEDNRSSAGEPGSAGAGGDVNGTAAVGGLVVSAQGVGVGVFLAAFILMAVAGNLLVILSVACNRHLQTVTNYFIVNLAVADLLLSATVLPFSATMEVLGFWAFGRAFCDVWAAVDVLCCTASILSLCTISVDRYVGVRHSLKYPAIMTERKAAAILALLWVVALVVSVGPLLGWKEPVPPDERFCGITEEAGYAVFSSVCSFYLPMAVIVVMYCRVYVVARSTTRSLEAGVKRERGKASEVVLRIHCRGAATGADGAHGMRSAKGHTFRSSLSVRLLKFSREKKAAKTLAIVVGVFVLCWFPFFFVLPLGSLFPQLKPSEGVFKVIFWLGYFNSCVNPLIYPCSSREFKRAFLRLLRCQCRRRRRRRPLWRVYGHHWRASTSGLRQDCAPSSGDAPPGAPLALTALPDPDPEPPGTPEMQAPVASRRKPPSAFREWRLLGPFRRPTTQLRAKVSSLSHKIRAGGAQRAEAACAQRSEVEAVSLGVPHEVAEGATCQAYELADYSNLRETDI
Assay type: cell membranes, HEK293, Membrane
Conditions: hek293

Row | Compound | IC50 | Ki
1 | Cc1ccc(C(=O)c2ccc(CC(=O)O)n2C)cc1 [TOLMETIN] | Not Active | –
2 | CC(=O)OCC(COC(C)=O)OC(C)=O [TRIACETIN] | Not Active | –
3 | TRANSPLATIN | Not Active | Not Active
4 | ZIRCONIUM(IV) CHLORIDE | Not Active | Not Active

Target: 5-hydroxytryptamine receptor 6 (Homo sapiens, UniProt P50406); note: in other assays of this panel Not Active means under 50% inhibition at 10 µM
Sequence (P50406 whole entry): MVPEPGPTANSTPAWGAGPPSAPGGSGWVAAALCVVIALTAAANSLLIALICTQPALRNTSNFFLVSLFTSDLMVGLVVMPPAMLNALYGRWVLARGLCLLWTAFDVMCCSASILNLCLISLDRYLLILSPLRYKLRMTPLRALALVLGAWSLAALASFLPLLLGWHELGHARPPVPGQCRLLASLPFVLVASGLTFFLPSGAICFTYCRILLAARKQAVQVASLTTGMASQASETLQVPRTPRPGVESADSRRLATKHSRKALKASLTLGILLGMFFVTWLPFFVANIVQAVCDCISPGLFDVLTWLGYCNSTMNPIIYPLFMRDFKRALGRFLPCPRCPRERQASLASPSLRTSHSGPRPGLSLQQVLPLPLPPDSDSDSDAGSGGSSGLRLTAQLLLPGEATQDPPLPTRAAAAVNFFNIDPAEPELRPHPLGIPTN
Assay type: cell membranes, HeLa, Membrane
Conditions: hela

Row | Compound | IC50 | Ki
5 | Cc1ccc(C(=O)c2ccc(CC(=O)O)n2C)cc1 [TOLMETIN] | Not Active | –
6 | CC(=O)OCC(COC(C)=O)OC(C)=O [TRIACETIN] | Not Active | –
7 | TRANSPLATIN | Not Active | Not Active
8 | ZIRCONIUM(IV) CHLORIDE | Not Active | Not Active

Test system: not listed separately
Test: DRUGMATRIX: Calcium Channel Type L, Phenylalkylamine radioligand binding (ligand: [3H] (-)-Desmethoxyverapamil (D-888))
Assay type: cell membranes, Rattus norvegicus, Wistar, Brain, Membrane
Conditions: Not Active = under 50% inhibition at 10 µM

Row | Compound | IC50 | Ki
9 | Cc1ccc(C(=O)c2ccc(CC(=O)O)n2C)cc1 [TOLMETIN] | Not Active | Not Active
10 | CC(=O)OCC(COC(C)=O)OC(C)=O [TRIACETIN] | Not Active | Not Active
11 | TRANSPLATIN | Not Active | Not Active
12 | ZIRCONIUM(IV) CHLORIDE | Not Active | Not Active

Target: T2, Leukotriene C4 synthase (Cavia porcellus, UniProt A6XA80);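 note: enzyme inhibition assay of leukotriene C4 synthase, using LTA4 as the substrate; in other assays of this panel Not Active means under 50% inhibition at 10 µM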
T2 sequence (A6XA80 whole entry): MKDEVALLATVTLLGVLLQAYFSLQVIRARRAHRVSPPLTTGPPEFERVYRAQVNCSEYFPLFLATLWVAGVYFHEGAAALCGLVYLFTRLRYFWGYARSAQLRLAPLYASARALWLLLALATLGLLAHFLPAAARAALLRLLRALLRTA
Assay type: tissue-based, Lung
Conditions: not given

Row | Compound | IC50 | Ki
13 | Cc1ccc(C(=O)c2ccc(CC(=O)O)n2C)cc1 [TOLMETIN] | Not Active | –
14 | CC(=O)OCC(COC(C)=O)OC(C)=O [TRIACETIN] | Not Active | –
15 | TRANSPLATIN | Not Active | Not Active
16 | ZIRCONIUM(IV) CHLORIDE | Not Active | Not Active

Test system: not listed separately
Test: DRUGMATRIX: Nicotinic Acetylcholine radioligand binding (ligand: [125I] Epibatidine)
Assay type: cell membranes, Membrane
Conditions: imr-32; Not Active = under 50% inhibition at 10 µM

Row | Compound | IC50 | Ki
17 | Cc1ccc(C(=O)c2ccc(CC(=O)O)n2C)cc1 [TOLMETIN] | Not Active | Not Active
18 | CC(=O)OCC(COC(C)=O)OC(C)=O [TRIACETIN] | Not Active | Not Active
19 | TRANSPLATIN | Not Active | Not Active
20 | ZIRCONIUM(IV) CHLORIDE | Not Active | Not Active

Target: Cytochrome P450 2D6 (Homo sapiens, UniProt P10635); note: in other assays of this panel Not Active means under 50% inhibition at 10 µM
Sequence (P10635 whole entry): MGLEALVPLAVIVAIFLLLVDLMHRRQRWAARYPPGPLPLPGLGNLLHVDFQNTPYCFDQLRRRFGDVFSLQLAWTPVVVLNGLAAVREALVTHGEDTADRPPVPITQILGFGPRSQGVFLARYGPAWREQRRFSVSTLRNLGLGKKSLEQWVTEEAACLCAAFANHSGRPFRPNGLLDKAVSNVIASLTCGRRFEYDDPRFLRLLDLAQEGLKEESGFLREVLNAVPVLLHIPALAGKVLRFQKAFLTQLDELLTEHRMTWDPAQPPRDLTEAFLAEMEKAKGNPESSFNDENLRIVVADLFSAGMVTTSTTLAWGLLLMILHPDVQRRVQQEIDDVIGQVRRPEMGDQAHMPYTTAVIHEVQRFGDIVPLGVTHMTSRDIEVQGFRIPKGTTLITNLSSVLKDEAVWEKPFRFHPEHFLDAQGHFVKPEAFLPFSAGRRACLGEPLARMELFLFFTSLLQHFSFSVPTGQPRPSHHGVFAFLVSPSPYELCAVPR
Conditions: bti-tn-5b1-4

Row | Compound | IC50 | Ki
21 | Cc1ccc(C(=O)c2ccc(CC(=O)O)n2C)cc1 [TOLMETIN] | Not Active | Not Active
22 | CC(=O)OCC(COC(C)=O)OC(C)=O [TRIACETIN] | Not Active | Not Active
23 | TRANSPLATIN | Not Active | Not Active
24 | ZIRCONIUM(IV) CHLORIDE | Not Active | Not Active

Target: Voltage-gated inwardly rectifying potassium channel KCNH2 (Homo sapiens, UniProt Q12809); note: in other assays of this panel Not Active means under 50% inhibition at 10 µM
Sequence (Q12809 whole entry): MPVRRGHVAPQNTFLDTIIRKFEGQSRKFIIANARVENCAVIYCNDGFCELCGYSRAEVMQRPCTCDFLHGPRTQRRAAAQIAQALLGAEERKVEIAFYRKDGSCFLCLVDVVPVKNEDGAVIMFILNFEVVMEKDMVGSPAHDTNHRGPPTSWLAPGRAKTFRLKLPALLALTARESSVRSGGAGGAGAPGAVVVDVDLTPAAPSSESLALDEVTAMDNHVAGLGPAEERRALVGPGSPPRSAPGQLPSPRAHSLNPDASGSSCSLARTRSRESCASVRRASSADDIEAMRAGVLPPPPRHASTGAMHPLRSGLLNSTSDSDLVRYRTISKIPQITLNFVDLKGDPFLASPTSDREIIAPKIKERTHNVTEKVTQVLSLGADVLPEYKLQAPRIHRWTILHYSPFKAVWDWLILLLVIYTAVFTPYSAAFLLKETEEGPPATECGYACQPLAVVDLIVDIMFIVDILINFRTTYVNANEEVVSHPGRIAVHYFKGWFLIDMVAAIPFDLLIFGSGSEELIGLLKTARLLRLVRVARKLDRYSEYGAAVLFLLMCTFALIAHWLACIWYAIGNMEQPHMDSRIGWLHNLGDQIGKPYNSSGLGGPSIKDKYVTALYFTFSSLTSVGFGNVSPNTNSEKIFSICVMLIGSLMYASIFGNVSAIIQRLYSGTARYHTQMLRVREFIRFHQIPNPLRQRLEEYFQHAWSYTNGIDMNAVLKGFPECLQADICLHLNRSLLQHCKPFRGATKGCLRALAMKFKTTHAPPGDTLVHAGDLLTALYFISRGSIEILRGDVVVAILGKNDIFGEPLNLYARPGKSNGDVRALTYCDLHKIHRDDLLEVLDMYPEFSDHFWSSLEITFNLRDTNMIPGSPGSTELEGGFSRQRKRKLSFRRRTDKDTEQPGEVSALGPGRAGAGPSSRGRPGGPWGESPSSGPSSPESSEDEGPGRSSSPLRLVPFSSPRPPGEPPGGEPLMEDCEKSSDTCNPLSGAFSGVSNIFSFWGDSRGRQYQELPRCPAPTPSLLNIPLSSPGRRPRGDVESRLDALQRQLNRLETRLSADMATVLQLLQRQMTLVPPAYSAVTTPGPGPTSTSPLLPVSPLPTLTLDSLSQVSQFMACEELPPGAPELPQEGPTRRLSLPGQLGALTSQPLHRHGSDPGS
Conditions: hek293

Row | Compound | IC50 | Ki
25 | Cc1ccc(C(=O)c2ccc(CC(=O)O)n2C)cc1 [TOLMETIN] | Not Active | Not Active
26 | CC(=O)OCC(COC(C)=O)OC(C)=O [TRIACETIN] | Not Active | Not Active
27 | TRANSPLATIN | Not Active | Not Active
28 | ZIRCONIUM(IV) CHLORIDE | Not Active | Not Active
